Publication PMC4474554 (PLoS ONE, 2015)
Where “and” joins values, the source holds several entries; their conditions need not be identical. Identical values can stand only once. Entries after “also recorded” stand apart in the source; their conditions may differ. Like-named read-outs stand apart in the source and are kept apart here.

Tests used:
c-Src = conditions: updated data; cited from earlier work
NCI-H1666 = assay: MTS assay, NCI-H1666
Flt-1 = system: Flt-1; parameters: method as in earlier work; conditions: updated data; cited from earlier work
NCI-H1819 = assay: MTS assay, NCI-H1819
PKA = system: PKA; parameters: method as in earlier work; conditions: updated data; cited from earlier work
KDR = system: KDR; parameters: method as in earlier work; conditions: updated data; cited from earlier work
c-Abl = system: c-Abl; parameters: method as in earlier work; conditions: updated data; cited from earlier work
Tek = system: Tek; parameters: method as in earlier work; conditions: updated data; cited from earlier work
FAK = system: FAK; parameters: method as in earlier work; conditions: updated data; cited from earlier work
RPC-9 = assay: MTS assay, RPC-9
PDK1 = system: PDK1; parameters: method as in earlier work; conditions: updated data; cited from earlier work
BRAF (V600E) = system: BRAF (V600E); parameters: method as in earlier work; conditions: updated data; cited from earlier work
ALK = conditions: updated data; cited from earlier work
[1] = system: HEK-293T with mutant EGFR (L858R); assay type: cell-based
Description: Drug sensitivity was determined by a modified MTS assay with CellTiter 96 AQueous One Solution Reagent (Promega, Madison, WI). Cells were generally seeded on 96-well plates at a density that would yield 80% confluence by the completion of the experiment, varying by each cell line from 3000 to 4000 per well. […] After that, MTS dye was added to each well. The cultures were incubated for another 1 hour at 37°C in a humidified atmosphere with 5% CO2. Optical densities of samples were measured at 490 nm using Immuno Mini NJ-2300 (Nalge Nunc International KK, Rochester, NY). Mean optical density at each drug concentration was calculated after discarding the highest and lowest values. […] IC50 values were expressed as mean and standard deviations. The assays were repeated until the standard deviation became less than the mean.

c-Met = conditions: updated data; cited from earlier work
Syk = system: Syk; parameters: method as in earlier work; conditions: updated data; cited from earlier work
PC-9 xenograft = PC-9 xenograft mouse model; assay type: in vivo, BALB/c-nu/nu female nude mice; conditions: oral, once a day, 14 days, 30, 60 and 90 mg/kg, dose-dependent
Description: (§1) In this experiment, we used BALB/c-nu/nu female nude mice at 4–6 weeks of age that were purchased from Charles River Laboratories Japan, Inc (Yokohama, Japan). They were maintained under specific-pathogen-free conditions in accordance with the guidelines of the Animal Care and Use Committee at Okayama University. […] Every three days, body weight of the mice and the major axis and minor axis of each tumor were measured and calculated tumor volume using the following formula; (major axis) × (minor axis)^2 × 1/2 [37, 38]. For the 14 days, tumor volume, tumor growth rate and the body weight were analyzed as an average of the each group.

JAK-2 = system: JAK-2; parameters: method as in earlier work; conditions: updated data; cited from earlier work
A549 = assay: MTS assay, A549
Lck = system: Lck; parameters: method as in earlier work; conditions: updated data; cited from earlier work
phospho-IGF-IR = assay: Western blotting, IGF-IR phosphorylation after serum-starvation; assay type: cell-based; conditions: PC-9, RPC-9, NCI-H1299, NCI-H1819; regardless of IGF-I ligand stimulation; TAE226 two hours
Description: Next, they were washed out with cold PBS and lysed in 1 × cell lysis buffer [20 mM Tris-HCl (pH 7.5), 150 mM NaCl, 1 mM Na2EDTA, 1 mM EGTA, 1% Triton, 2.5 mM sodium pyrophosphate, 1 mM beta-glycerophosphate, 1 mM Na3VO4, 1 μg/ml leupeptin] (Cell signaling Technology) supplemented with Complete, Mini (Roche, Basel, Switzerland) to extract protein. After the protein concentration was measured, equal amounts of total protein (30 μg) were separated by SDS-PAGE and transferred to PVDF membranes. The proteins on membranes were incubated overnight at 4°C with the primary antibodies. The following secondary antibodies were used: goat antirabbit or antimouse IgG-conjugated horseradish peroxidase (HRP) (Santa Cruz Biotechnology, Santa Cruz, CA). To detect specific signals, the membranes were incubated by ECL plus Western Blotting Detection Reagents (Amersham Biosciences UK Limited, Buckinghamshire, UK).

CDK1/cyclin B = system: CDK1/cyclin B; parameters: method as in earlier work; conditions: updated data; cited from earlier work
c-Raf = system: c-Raf; parameters: method as in earlier work; conditions: updated data; cited from earlier work
NCI-H2228 = assay: MTS assay, NCI-H2228
Ret (M918T) = system: Ret (M918T); parameters: method as in earlier work; conditions: updated data; cited from earlier work
RPC-9 xenograft = RPC-9 xenograft mouse model; assay type: in vivo, BALB/c-nu/nu female nude mice; conditions: oral, once a day, 14 days, 30, 60 and 90 mg/kg, dose-dependent
Description: as §1

## CNC(=O)c1ccccc1Nc1nc(Nc2ccc(N3CCOCC3)cc2OC)ncc1Cl [TAE226]
c-Src
  IC50: 910 nM
NCI-H1666; read-out: IC50 (μM) (mean ± SD), NCI-H1666, BRAF Exon 11 (G466V), MTS, TAE226 48 hours, gefitinib 72 hours
  IC50: 0.42 ± 0.08 µM
NCI-H1666; read-out: each IC50, NCI-H1666, independent MTS assays
  IC50: 0.5 µM and 0.34 µM
Flt-1
  IC50: […]
NCI-H1819; read-out: IC50 (μM) (mean ± SD), NCI-H1819, HER2 amplification, MTS, TAE226 48 hours, gefitinib 72 hours
  IC50: 3.8 ± 0.4 µM
NCI-H1819; read-out: each IC50, NCI-H1819, independent MTS assays
  IC50: 4 µM and 3.2 µM and 4.1 µM
PKA
  IC50: […]
KDR
  IC50: […]
c-Abl
  IC50: 5900 nM
Tek
  IC50: 580 nM
FAK
  IC50: 5.5 nM
RPC-9; read-out: IC50 (μM) (mean ± SD), RPC-9, EGFR Exon 19 del (E746-A750) + T790M, MTS, TAE226 48 hours, gefitinib 72 hours
  IC50: 0.31 ± 0.03 µM
RPC-9; read-out: each IC50, RPC-9, independent MTS assays
  IC50: 0.35 µM and 0.33 µM and 0.28 µM and 0.27 µM
PDK1
  IC50: […]
BRAF (V600E)
  IC50: 1400 nM
ALK
  IC50: […]
[1]; HEK293T-L858R, independent MTS assays, read-out: each IC50
  IC50: 0.43 µM
[1]; Transfected HEK-293T, mutant EGFR (L858R), MTS, TAE226 48 hours, gefitinib 72 hours, read-out: IC50 (μM) (mean ± SD)
  IC50: 0.41 ± 0.06 µM
c-Met
  IC50: 160 nM
Syk
  IC50: […]
PC-9 xenograft
  tumor volume / tumor growth compared with vehicle-treated mice: significantly decreased; also recorded: significantly inhibited
JAK-2
  IC50: 840 nM
A549; read-out: IC50 (μM) (mean ± SD), A549, KRAS Codon 12 (G12S), MTS, TAE226 48 hours, gefitinib 72 hours
  IC50: 1.4 ± 0.05 µM
A549; read-out: each IC50, A549, independent MTS assays
  IC50: 1.4 µM and 1.3 µM
A549; read-out: mean IC50, A549, mean of independent MTS assays
  IC50: 1.4 µM
Lck
  IC50: […]
phospho-IGF-IR
  phosphorylation of IGF-IR after serum-starvation: completely inhibited
CDK1/cyclin B
  IC50: 540 nM
c-Raf
  IC50: […]
NCI-H2228; read-out: IC50 (μM) (mean ± SD), NCI-H2228, EML4-ALK fusion Variant 3, MTS, TAE226 48 hours, gefitinib 72 hours
  IC50: 0.28 ± 0.001 µM
NCI-H2228; read-out: each IC50, NCI-H2228, independent MTS assays
  IC50: 0.28 µM
NCI-H2228; read-out: mean IC50, NCI-H2228, mean of independent MTS assays
  IC50: 0.28 µM
Ret (M918T)
  IC50: […]
RPC-9 xenograft
  tumor volume / tumor growth compared with vehicle-treated mice: significantly decreased; also recorded: significantly inhibited
